Assay results published in ChEMBL document CHEMBL1201862, “PubChem BioAssay data set” (2004).
Active and inactive are the calls of the source.

Experiments:
[1] = target: T1, Calpain-2 catalytic subunit (Sus scrofa, UniProt P43367); experiment: pig calpain II inhibitor potency, dose response, biochemical, fluorogenic peptide substrate (AID 1420); assay type: functional
T1 sequence (P43367 whole entry): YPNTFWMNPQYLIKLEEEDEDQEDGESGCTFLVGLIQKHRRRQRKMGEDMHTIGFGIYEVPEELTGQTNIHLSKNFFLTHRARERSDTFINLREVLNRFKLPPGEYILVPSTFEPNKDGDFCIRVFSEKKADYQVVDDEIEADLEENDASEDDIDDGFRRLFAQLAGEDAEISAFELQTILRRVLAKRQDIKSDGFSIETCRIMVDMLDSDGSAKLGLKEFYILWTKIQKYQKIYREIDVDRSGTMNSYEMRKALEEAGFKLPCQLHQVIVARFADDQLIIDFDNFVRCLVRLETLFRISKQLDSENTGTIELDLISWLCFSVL

[2] = target: T2, Rac GTPase-activating protein 1 (Homo sapiens, UniProt Q9H0H5); experiment: MgcRacGAP GTPase-activating activity inhibitors, confirmation, biochemical, ADP Hunter fluorescence, primary and confirmatory (AID 624330); assay type: functional
T2 sequence (Q9H0H5 whole entry): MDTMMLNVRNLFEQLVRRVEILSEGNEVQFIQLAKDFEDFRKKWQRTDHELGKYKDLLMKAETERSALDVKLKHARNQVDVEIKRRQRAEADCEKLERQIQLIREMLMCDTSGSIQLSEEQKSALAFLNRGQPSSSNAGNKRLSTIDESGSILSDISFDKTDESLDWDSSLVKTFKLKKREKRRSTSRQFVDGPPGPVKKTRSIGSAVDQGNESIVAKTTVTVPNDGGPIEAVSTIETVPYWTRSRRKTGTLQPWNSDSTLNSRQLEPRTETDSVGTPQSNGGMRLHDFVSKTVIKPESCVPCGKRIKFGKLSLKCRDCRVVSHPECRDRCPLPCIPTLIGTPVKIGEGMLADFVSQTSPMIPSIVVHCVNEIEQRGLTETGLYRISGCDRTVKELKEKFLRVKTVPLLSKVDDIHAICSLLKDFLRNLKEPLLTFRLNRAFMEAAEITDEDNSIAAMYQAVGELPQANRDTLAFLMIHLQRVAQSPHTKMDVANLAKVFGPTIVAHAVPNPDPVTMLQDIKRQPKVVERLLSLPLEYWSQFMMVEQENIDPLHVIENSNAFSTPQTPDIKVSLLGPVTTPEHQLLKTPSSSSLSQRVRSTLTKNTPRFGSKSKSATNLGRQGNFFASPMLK

[3] = target: T3, Polyadenylate-binding protein 1 (Homo sapiens, UniProt P11940); experiment: PABP1 MLLE–PAM2 interaction inhibitors, dose response, miRNA deadenylation inhibitor project, biochemical, fluorescence polarization, Cy5-PAM2 peptide, secondary (AID 602260); assay type: functional; settings: read-out: IC50_Mean
[4] = target: T3, Polyadenylate-binding protein 1; experiment: PABP1 MLLE–PAM2 binding inhibitor potency, dose response, biochemical, fluorescence polarization, FITC-PAM2 peptide (AID 602259); assay type: functional; settings: read-out: IC50_Mean
[5] = tested on: BJ; experiment: cytotoxicity toward BJ-TERT-LT-ST fibroblasts, dose response, cell-based, RAS-independent, luminescence (AID 1935); assay type: functional; settings: Homo sapiens;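 also: BJ fibroblasts immortalized with TERT plus LT and ST oncogenes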
[6] = tested on: BJ; experiment: cells; assay type: functional, cell-based; settings: Homo sapiens
[7] = cytotoxicity toward DRD oncogenic fibroblasts, dose response, cell-based, non-viral oncogenic, luminescence (AID 1934); assay type: functional; settings: Homo sapiens
[8] = tested on: BJ; experiment: cytotoxicity toward BJ-TERT fibroblasts, dose response, cell-based, RAS-independent, luminescence (AID 1933); assay type: functional; settings: Homo sapiens
[9] = cells; assay type: functional, cell-based
[10] = cells; assay type: functional, cell-based; remark: listed apart in the source
[11] = target: T4, Corticotropin-releasing factor receptor 2/Corticotropin-releasing factor-binding protein (Homo sapiens, UniProt P24387+Q13324); experiment: activators of CRF receptor 2 with binding protein – uHTS hits, confirmation (AID 602473); assay type: functional; settings: read-out: EC50_Mean
T4 sequence (Q13324 whole entry): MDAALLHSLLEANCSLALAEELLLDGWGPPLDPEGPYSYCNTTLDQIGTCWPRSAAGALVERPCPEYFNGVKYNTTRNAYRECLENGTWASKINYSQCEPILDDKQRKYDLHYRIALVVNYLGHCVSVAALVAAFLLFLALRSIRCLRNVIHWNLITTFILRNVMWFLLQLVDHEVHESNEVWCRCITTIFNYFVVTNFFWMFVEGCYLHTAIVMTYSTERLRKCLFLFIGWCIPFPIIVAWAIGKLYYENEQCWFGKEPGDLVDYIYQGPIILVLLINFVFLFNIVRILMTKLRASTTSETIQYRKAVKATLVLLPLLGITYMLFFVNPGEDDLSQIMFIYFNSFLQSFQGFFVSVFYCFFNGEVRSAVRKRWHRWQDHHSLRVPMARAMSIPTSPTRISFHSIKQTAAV
T4 sequence (P24387 whole entry): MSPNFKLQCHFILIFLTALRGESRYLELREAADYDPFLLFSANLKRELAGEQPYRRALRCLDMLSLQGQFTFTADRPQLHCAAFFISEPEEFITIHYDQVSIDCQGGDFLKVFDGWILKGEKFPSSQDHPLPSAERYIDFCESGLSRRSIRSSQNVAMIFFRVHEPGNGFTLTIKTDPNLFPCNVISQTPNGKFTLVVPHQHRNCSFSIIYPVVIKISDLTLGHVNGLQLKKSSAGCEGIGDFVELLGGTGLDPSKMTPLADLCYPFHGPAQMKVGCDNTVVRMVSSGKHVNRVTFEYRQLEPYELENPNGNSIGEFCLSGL

[12] = target: T4, Corticotropin-releasing factor receptor 2/Corticotropin-releasing factor-binding protein; experiment: Dose Response confirmation of uHTS hits for small molecule antagonists of the CRF-binding protein and CRF-R2 receptor complex.; assay type: functional; settings: read-out: IC50_Mean
[13] = target: Paired box protein Pax-8 (Homo sapiens, UniProt Q06710); experiment: inhibitors of PAX8-driven TPO luciferase reporter, dose response, RMG-I cells, cherry-pick (AID 687027); assay type: functional, cell-based;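 also: luciferase reporter driven by Pax8 target thyroperoxidase promoter measured by SteadyGlo luminescence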
[14] = target: Cytochrome P450 2D6 (Homo sapiens, UniProt P10635);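 also: CYP2D6 member of a cytochrome P450 panel assay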
[15] = Luminescence Cell-Based Dose Response HTS to Identify Activators of Luciferase Translation or Activity in H4 […] Cells. [Related pubchem assays: 1829 (Project Summary), 1814 (Primary HTS)]; assay type: functional

T3 sequence (P11940 whole entry): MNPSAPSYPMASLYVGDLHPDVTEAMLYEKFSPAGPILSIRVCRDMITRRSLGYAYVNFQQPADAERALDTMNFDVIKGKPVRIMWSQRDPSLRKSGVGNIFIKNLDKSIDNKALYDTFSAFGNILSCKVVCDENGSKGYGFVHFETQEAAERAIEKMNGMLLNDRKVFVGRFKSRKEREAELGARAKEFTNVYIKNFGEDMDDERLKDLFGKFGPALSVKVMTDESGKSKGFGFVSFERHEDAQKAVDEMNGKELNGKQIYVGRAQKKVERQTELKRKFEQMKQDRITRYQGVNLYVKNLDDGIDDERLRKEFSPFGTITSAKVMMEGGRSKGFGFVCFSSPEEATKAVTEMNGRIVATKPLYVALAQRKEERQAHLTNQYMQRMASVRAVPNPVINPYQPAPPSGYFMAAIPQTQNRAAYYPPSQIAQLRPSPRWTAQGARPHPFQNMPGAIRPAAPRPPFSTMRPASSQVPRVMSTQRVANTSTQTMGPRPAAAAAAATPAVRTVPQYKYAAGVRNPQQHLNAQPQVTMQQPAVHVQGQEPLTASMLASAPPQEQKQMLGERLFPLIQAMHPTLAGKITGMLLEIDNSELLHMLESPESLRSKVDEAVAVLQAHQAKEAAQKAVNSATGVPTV
Paired box protein Pax-8, sequence (Q06710 whole entry): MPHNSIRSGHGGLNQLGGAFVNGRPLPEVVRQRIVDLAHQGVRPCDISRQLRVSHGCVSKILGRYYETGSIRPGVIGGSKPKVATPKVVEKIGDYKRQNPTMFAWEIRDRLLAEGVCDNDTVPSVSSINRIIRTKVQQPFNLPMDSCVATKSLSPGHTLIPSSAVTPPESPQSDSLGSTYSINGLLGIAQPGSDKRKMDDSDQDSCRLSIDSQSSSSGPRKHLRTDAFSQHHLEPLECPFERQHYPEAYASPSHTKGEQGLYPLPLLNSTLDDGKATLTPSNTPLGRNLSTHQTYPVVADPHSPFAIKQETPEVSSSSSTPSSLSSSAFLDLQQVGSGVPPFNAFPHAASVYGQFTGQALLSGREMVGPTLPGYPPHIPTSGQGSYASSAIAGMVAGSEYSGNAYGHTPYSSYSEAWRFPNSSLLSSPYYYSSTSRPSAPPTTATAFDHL
Cytochrome P450 2D6, sequence (P10635 whole entry): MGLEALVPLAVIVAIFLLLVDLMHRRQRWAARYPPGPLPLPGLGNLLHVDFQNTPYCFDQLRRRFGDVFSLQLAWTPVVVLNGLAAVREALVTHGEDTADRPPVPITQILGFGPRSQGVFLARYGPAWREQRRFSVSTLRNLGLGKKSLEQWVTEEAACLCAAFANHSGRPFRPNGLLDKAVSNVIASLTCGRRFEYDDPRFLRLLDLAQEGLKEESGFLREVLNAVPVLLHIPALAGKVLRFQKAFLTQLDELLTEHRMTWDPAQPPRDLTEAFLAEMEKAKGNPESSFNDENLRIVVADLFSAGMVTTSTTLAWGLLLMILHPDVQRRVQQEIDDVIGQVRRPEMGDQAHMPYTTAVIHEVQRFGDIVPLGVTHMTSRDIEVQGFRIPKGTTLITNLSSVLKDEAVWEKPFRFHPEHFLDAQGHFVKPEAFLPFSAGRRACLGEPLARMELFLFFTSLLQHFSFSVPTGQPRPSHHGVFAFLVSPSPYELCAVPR

Compound: COc1cc(CNc2nc(C)c([N+](=O)[O-])c(C)c2C#N)cc(OC)c1
- IC50 [1]: 1.63 µM (not active)

Compound: c1ccc(CNC23CC4CC(CC(C4)C2)C3)nc1
- IC50 [2]: 110 µM (active)

Compound: CCCCOC(=O)c1ccc(NC(=O)c2c(Cl)ccc(Cl)c2OC)cc1
- IC50 [1]: 10.8 µM (not active)

Compound: CCOC(=O)c1c(-c2ccc(C)o2)csc1NC(=S)NC(=O)c1ccc(F)cc1
- IC50 [3]: > 66 µM (inactive)
- IC50 [4]: > 66 µM (inactive)

Compound: CC(=O)/C(C#N)=C1\NC(=O)C(Cc2cc(Cl)ccc2Cl)S1 (centres undefined)
- EC50 [5]: > 150 µM (not active)
- EC50 [6]: 61.2 µM (active)
- EC50 [7]: 76.8 µM (active)
- EC50 [8]: > 150 µM (not active)

Compound: O=C(N/C(=C\c1ccco1)C(=O)N1CCCC1CO)c1ccccc1 (centres undefined)
- IC50 [3]: > 66 µM (inactive)
- IC50 [4]: > 66 µM (inactive)

Compound: CCCCC1=CC2=C(c3ccco3)C(=O)C(C)(OC(=O)c3ccc(OC)cc3)C(=O)C2=CN1c1ccc(OC)cc1 (centres undefined)
- EC50 [5]: > 150 µM (inconclusive)
- EC50 [6]: > 150 µM (not active)
- EC50 [7]: > 150 µM (not active)
- EC50 [8]: 47.1 µM (active)

Compound: O=C(CSc1ccc(-c2cccnc2)nn1)c1ccc([N+](=O)[O-])cc1
- IC50 [3]: > 66 µM (inactive)
- IC50 [4]: > 66 µM (inactive)

Compound: CCOCCCN=C(S)Nc1cc(C)cc(C)c1
- EC50 [9]: > 350 µM (not active)
- EC50 [10]: > 350 µM (not active)

Compound: CSCc1ccc(C(=O)N2CCCC(Nc3ccc4c(c3)OCCO4)C2)o1 (centres undefined)
- IC50 [2]: 152 µM (active)

Compound: COc1ccccc1S(=O)(=O)Cc1ccc(C(=O)NCc2ccccc2)o1
- EC50 [11]: > 53 µM (inactive)
- IC50 [12]: > 47.1 µM (inactive)

Compound: Cc1noc(/C=C/c2ccco2)c1S(=O)(=O)N1CCC(C(=O)NC(C)c2ccccc2)CC1 (centres undefined)
- AC50 [13]: 0.931 µM (active)

Compound: COc1cccc(OC)c1OCCCN1CCOCC1
- IC50 [2]: 162 µM (active)
- AC50 [14]: 39.8 µM (inconclusive)

Compound: CC(=O)c1ccc(NC(=O)C2CCCNC2=O)cc1 (centres undefined)
- IC50 [3]: > 66 µM (inactive)
- IC50 [4]: > 66 µM (inactive)

Compound: Cc1noc(C)c1COc1ccc(C(=O)OCc2nnc(-c3ccc(Cl)cc3)o2)cc1
- IC50 [1]: 4.47 µM (not active)

Compound: Cn1c(SCC(=O)N2CCCc3ccccc32)nc2cccnc21
- EC50 [11]: > 53 µM (inactive)
- IC50 [12]: > 47.1 µM (inactive)

Compound: COc1ccc(N2CCN(C(=O)Nc3ccc(S(=O)(=O)N(C)C)cc3)CC2)cc1
- IC50 [1]: < 0.4 µM (not active)

Compound: N#CC1=C(S)N(c2ccccc2)C(c2ccc(-c3ccccc3Cl)o2)NC1=O (centres undefined)
- IC50 [2]: 99.8 µM (active)

Compound: O=C(CN1C(=O)NC(Cc2ccccc2)C1=O)Nc1ccccc1 (centres undefined)
- IC50 [1]: 17.4 µM (not active)

Compound: COc1ccnc(Oc2ccc3ccccc3c2)c1C#N
- IC50 [1]: > 50 µM (not active)

Compound: COc1cccc(/C=C2\SC(=O)N(CC(=O)NC3C=CS(=O)(=O)C3)C2=O)c1 (centres undefined)
- IC50 [3]: > 66 µM (inactive)
- IC50 [4]: 56.6 µM (inactive)

Compound: COc1ccc(NC(S)=NCCc2c(C)[nH]c3ccc(OC)cc23)cc1
- IC50 [1]: 30.1 µM (not active)

Compound: Cc1cccnc1NC(=O)C(C)Oc1ccccc1 (centres undefined)
- EC50 [11]: > 53 µM (inactive)
- IC50 [12]: > 47.1 µM (inactive)

Compound: CN(NC(=O)c1ccccc1F)c1nc(C(F)(F)F)nc2ccccc12
- EC50 [5]: 0.428 µM (inconclusive)
- EC50 [6]: 0.813 µM (active)
- EC50 [7]: 0.628 µM (active)
- EC50 [8]: 0.667 µM (inconclusive)

Compound: O=C(CSc1ccc(-c2ccccn2)nn1)Nc1nccs1
- EC50 [9]: > 350 µM (not active)
- EC50 [10]: > 350 µM (not active)

Compound: Cc1ccc(CCC(=O)Nc2ncc(Cc3cccc(Cl)c3Cl)s2)o1
- EC50 [5]: 0.216 µM (inconclusive)
- EC50 [6]: 0.668 µM (active)
- EC50 [7]: 0.381 µM (active)
- EC50 [8]: 0.311 µM (active)

Compound: Cc1ccc(C)c(S(=O)(=O)N2CCN(CC(=O)N3CCc4ccccc4C3)CC2)c1
- IC50 [2]: 93 µM (active)

Compound: Cc1ccc(-n2c(C)cc(C(=O)COC(=O)c3c(C)noc3C)c2C)cc1
- EC50 [15]: 0.413 µM (active)

Compound: COc1ccccc1NC(=O)C1CCN(C(=O)c2ccc(C(C)(C)C)cc2)CC1
- EC50 [9]: > 350 µM (not active)
- EC50 [10]: > 350 µM (not active)

Compound: Cc1noc(C)c1COC(=O)C(c1ccccc1)c1ccccc1
- IC50 [1]: 11.3 µM (not active)

Compound: COc1ccc(CNC(=O)[C@H](C)NC(=O)C2CCN(S(=O)(=O)c3ccc(F)cc3)CC2)cc1
- EC50 [11]: > 53 µM (inactive)
- IC50 [12]: > 47.1 µM (inactive)

Compound: CC(=O)CC(=O)Nc1ccc(Nc2ccccc2)cc1
- IC50 [2]: 178 µM (active)

Compound: Cc1occc1C(=O)NC(C)C12CC3CC(CC(C3)C1)C2 (centres undefined)
- EC50 [11]: > 53 µM (inactive)
- IC50 [12]: > 47.1 µM (inactive)

Compound: CSc1ccc(S(=O)(=O)NCC(=O)OCC(=O)N(Cc2ccccc2)C(C)C)cc1[N+](=O)[O-]
- EC50 [11]: > 53 µM (inactive)
- IC50 [12]: > 47.1 µM (inactive)

Compound: COc1ccc(NC2CCCN(C(=O)c3ccc(C)nc3)C2)cc1 (centres undefined)
- IC50 [2]: 161 µM (active)

Compound: CCc1ccc(Nc2nnc(SC(C)C(=O)NC3CC3)s2)cc1 (centres undefined)
- EC50 [11]: > 53 µM (inactive)
- IC50 [12]: > 47.1 µM (inactive)

Compound: O=C(CN1c2cccc3cccc(c23)S1(=O)=O)NC1CCCCC1
- EC50 [11]: > 53 µM (inactive)
- IC50 [12]: > 47.1 µM (inactive)

Compound: CC(/C=N/Nc1nc(C)cc(C)n1)=C\c1ccc(C(C)C)cc1
- EC50 [11]: > 53 µM (inactive)
- IC50 [12]: > 47.1 µM (inactive)

Compound: C[C@H](CO)N1C[C@H](C)[C@H](CN(C)Cc2ccc3c(c2)OCO3)Oc2ccc(NC(=O)Nc3cccc4ccccc34)cc2C1=O
- AC50 [13]: 26.5 µM (active)

Compound: COc1cc(/C=N/N2C(=O)c3ccccc3C2=O)ccc1O
- IC50 [2]: 50.2 µM (active)

Compound: CCOc1cc(/C=N/NC(=O)C(OC)c2ccccc2)ccc1O (centres undefined)
- IC50 [2]: 54.9 µM (active)

Compound: S=C(N/N=C/c1cccc2ccccc12)Nc1cccc(Cl)c1
- EC50 [9]: > 350 µM (not active)
- EC50 [10]: > 350 µM (not active)

Compound: O=C1ON=C(c2ccccc2)/C1=C/c1ccco1
- IC50 [2]: 91 µM (active)
